Experimental findings from patent publication US20160045496A1, “USE OF (RS)-S-CYCLOPROPYL-S-(4--5-(TRIFLUOROMETHYL)PYRIMIDIN-2-YL]AMINO}PHENYL)SULFOXIMIDE FOR TREATMENT OF SPECIFIC TUMOURS” (BAYER PHARMA AKTIENGESELLSCHAFT, priority 2013, published 2016) are described below.

What all share (type): cell-based
In one test the test system is RD cells. As to the kind of experiment: Proliferation assay, adherent cells, crystal violet. As to conditions: Homo sapiens, 96 h, RD (CLS-300401), rhabdomyosarcoma, 4 days incubation. The protocol: (§1) Human tumour cells were originally obtained from the American Type Culture Collection (ATCC), the Deutsche Sammlung von Mikroorganismen and Zellkulturen (DSMZ) (German Collection of Microorganisms and Cell Cultures) in Braunschweig, CLS Cell Lines Service GmbH in Eppelheim, the Institut Gustave Roussy (Villejuif, France), or the Charité in Berlin (table 1). Adherently growing cells (A-673, RD, Rh30, Rh41, SK-N-AS, NCI-H2286, HCC-366, FaDu, CAL-33, RPMI-2650, SiHa) were plated out in a density of 3000-4000 cells/measurement point, depending on the rate of growth of the cell line, in a 96-well multititre plate in 200 μl of growth medium (DMEM/HAMS F12, 2 mM L-glutamine, 10% foetal calf serum). After 24 hours, the cells of one plate (zero plate) were dyed with crystal violet (see below), whereas the medium of the other plates was replaced with fresh culture medium (200 μl) to which the test substances were added in various concentrations (0 μM, and also in the range of 0.001-3 μM; the final concentration of the solvent dimethyl sulphoxide was 0.5%). The cells were incubated for 4 days in the presence of the test substances. Cell proliferation was determined by dyeing the cells with crystal violet: the cells were fixed at room temperature for 15 min by adding 20 μl/measurement point of an 11% strength glutaraldehyde solution. After washing the fixed cells three times with water, the plates were dried at room temperature. The cells were dyed by adding 100 μl/measurement point of a 0.1% strength crystal violet solution (pH adjusted to pH 3 by adding acetic acid). After washing the dyed cells three times with water, the plates were dried at room temperature. The dye was dissolved by adding 100 μl/measurement point of a 10% strength acetic acid solution. Absorbance was determined photometrically at a wavelength of 595 nm. The percentage change in cell growth was calculated by normalizing the measured values to the absorbance values of the zero plate (=0%) and the absorbance of the untreated (0 μM) cells (=100%). The measured data were normalized to 0% inhibition (cell proliferation without inhibitor) and 100% inhibition (zero plate). The IC50 values were determined by means of a four parameter fit.
(§2) The substances were investigated in the following cell lines, which, by way of example, represent the specified indications (table 1).

Another test has as its system HCC-366 cells. Described as above. As to conditions: Homo sapiens, HCC366, 96 h, HCC-366 (DSMZ ACC-492), squamous-cell carcinoma, lung, 4 days incubation. As for the experimental part: as §1, §2
In the next test the test system is FaDu cells. Described as above. The conditions noted are these: Homo sapiens, 96 h, FaDu (ATCC HTB-43), squamous-cell carcinoma, head and nape, 4 days incubation. The protocol:
as §1, §2

A further test relates to SiHa cells. The description is as above. The conditions noted are these: Homo sapiens, 96 h, SiHa (ATCC HTB-35), squamous-cell carcinoma, cervix, 4 days incubation. As for the experimental part:
as §1, §2

In the next test the test system is SK-N-AS cells. The description is as above. The conditions noted are these: Homo sapiens, 96 h, SK-N-AS (ATCC CRL-2137), neuroblastoma, 4 days incubation. As for the experimental part:
as §1, §2

The next test deals with Rh30 cells. Described as above. As to conditions: Homo sapiens, 96 h, Rh30 (DSMZ ACC-489), rhabdomyosarcoma, 4 days incubation. The protocol:
as §1, §2

The test system of a further test is CAL-33 cells. The description is as above. The conditions noted are these: Homo sapiens, 96 h, CAL-33 (DSMZ ACC-447), squamous-cell carcinoma, head and nape, 4 days incubation. As for the experimental part:
as §1, §2

Another test concerns NCI-H2286 cells. The test is described as above. The conditions noted are these: Homo sapiens, 96 h, NCI-H2286 (ATCC CRL-5938), squamous-cell carcinoma, lung, 4 days incubation. The protocol: as §1, §2
In a further test the test system is RPMI-2650 cells. The test is described as above. The conditions noted are these: Homo sapiens, 96 h, RPMI-2650 (DSMZ ACC-287), squamous-cell carcinoma, head and nape, 4 days incubation. As for the experimental part: as §1, §2
A further test has as its system A-673 cells. The description is as above. The conditions noted are these: Homo sapiens, A673, 96 h, A-673 (ATCC CRL-1598), rhabdomyosarcoma, 4 days incubation. As for the experimental part: as §1, §2
The subject of the next test is Rh41 cells. The description is as above. The conditions noted are these: Homo sapiens, 96 h, Rh41 (DSMZ ACC-592), rhabdomyosarcoma, 4 days incubation. The protocol: as §1, §2
For another test, the system named is HBL-1 cells. As to the kind of experiment: Proliferation assay, suspension cells, Cell Titer-Glo. The conditions noted are these: Homo sapiens, HBL1, 96 h; HBL-1 (Charité, Berlin), diffuse large B-cell lymphoma; 4 days incubation; CTG. As for the experimental part: (§3) Cells growing in suspension (HBL-1, TMD-8, GRANTA-519, Jeko-1) were plated out in a cell density of 2000-4000 cells/measurement point, depending on the rate of growth of the cell line, in a black-walled, clear-bottom 96-well multititre plate in 100 μl of growth medium (DMEM/HAMS F12, 2 mM L-glutamine, 10% foetal calf serum). After 24 hours, cell density was determined in one plate (zero plate) by adding 60 μl/measurement point of CTG solution (Promega Cell Titer-Glo solution (catalogue numbers G755B and G756B)), subsequent incubation for 2 min followed by 10 min shaking (in the dark) and measurement of luminescence (VICTOR V, Perkin Elmer). For the test plates, the test substances were prepared in various concentrations (0 μM, and also in the range of 0.001-3 μM; the final concentration of the solvent dimethyl sulphoxide was 0.5%) as 3× concentrated solutions in fresh growth medium. Aliquots of 50 μl each were added to the cell suspensions and the cells were incubated for 4 days in the presence of the test substances. Subsequently, cell density was determined using CTG solution as described above and IC50 values were calculated by means of a four parameter fit.
as §2
A general note: In ATP-based viability assays light output follows the ATP content of the culture.

Another test concerns GRANTA-519 cells. The test is described as above. The conditions noted are these: Homo sapiens, 96 h; GRANTA-519 (DSMZ ACC-342), mantle cell lymphoma; 4 days incubation; CTG. The protocol:
as §3, §2

Test [1] relates to Jeko-1 cells. The description is as above. As to conditions: Homo sapiens, 96 h; Jeko-1 (DSMZ ACC-553), mantle cell lymphoma; 4 days incubation; CTG. The protocol: as §3, §2
For a further test, the system named is TMD-8 cells. The description is as above. The conditions noted are these: Homo sapiens, TMD8, 96 h; TMD-8 (Charité, Berlin), diffuse large B-cell lymphoma; 4 days incubation; CTG. The protocol:
as §3, §2

A further test has as its system UPN-1 cells. As to the kind of experiment: Cytotoxic action after 24 hours, WST-1 viability. As to conditions: Homo sapiens, UPN1, UPN-1 (Institut Gustave Roussy), mantle cell lymphoma, after 24 hours of incubation. As for the experimental part:
(§4) The cytotoxic action of BAY 1000394 on Jeko-1 and UPN-1 cells was also determined after 24 hours of incubation with the substance. To this end, 50 000 cells per measurement point were plated out in 96-well plates and incubated with BAY 1000394 in various concentrations in the range of 0.001 to 1.0 μM. After 24 hours, the viability of the cells was determined in accordance with the WST-1 method (Roche Diagnostics, catalogue number 11644807001).
as §2
Background: Tetrazolium assays rely on reduction of a dye to a coloured formazan, in cell work by metabolically active cells.

The subject of test [2] is Jeko-1 cells. As to the kind of experiment: Cytotoxic action after 24 hours, WST-1 viability. As to conditions: Homo sapiens, Jeko-1 (Institut Gustave Roussy), mantle cell lymphoma, after 24 hours of incubation. The protocol: as §4, §2

Usually IC50 stands for the concentration that inhibits the measured activity by half.

Turning to `C[C@@H](O)[C@@H](C)Oc1nc(Nc2ccc([S@](=N)(=O)C3CC3)cc2)ncc1C(F)(F)F` [BAY 1000394, (R)-S-cyclopropyl-S-(4-{[4-{[(1R, 2R)-2-hydroxy-1-methylpropyl]oxy}-5-(trifluoromethyl)pyrimidin-2-yl]amino}phenyl)sulphoximide], the IC50 was determined as 0.026 µM in the test on RD cells; 0.02 µM in the test with HCC-366 cells; 0.046 µM in the test on FaDu cells; 0.01 µM in the test with SiHa cells; 0.022 µM in the test on SK-N-AS cells; 0.023 µM with Rh30 cells. Besides, the IC50 with CAL-33 cells worked out at 0.019 µM; with NCI-H2286 cells it was 0.007 µM; in the test on RPMI-2650 cells, 0.013 µM; with A-673 cells, 0.0098 µM; with Rh41 cells, 0.017 µM; with HBL-1 cells, 0.024 µM. Moreover, the IC50 with GRANTA-519 cells turned out to be 0.044 µM; with Jeko-1 cells [1] it was 0.02 µM; in the test with TMD-8 cells it was 0.035 µM; with UPN-1 cells, 0.0047 µM; with Jeko-1 cells [2], 0.031 µM.
